Common to all, as to format: cell-based
For one assay, the system named is Calu-1 cells. The assay can be described thus: Anti-proliferation (viability) of NSCLC Calu-1 cells, 3 days (Table 7, FIG. 2B). To be noted: Homo sapiens, 72 h; Calu-1 cells, 3 days, 10-point serial dilution; read-out: GI IC50 in Calu-1. Summed up:
(§1)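 Cells treated with heterobifunctional compounds in 10-point serial dilution, then viability measured; Calu-1 NSCLC cells exposed for 3 days, ER+ T47D breast cancer cells for 6 days.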

In the next assay the test system is T47D cells. Briefly: Anti-proliferation (viability) of ER+ breast cancer T47D cells, 6 days (Table 7, FIG. 2B). To be noted: Homo sapiens, 144 h; T47D cells, 6 days, 10-point serial dilution; read-out: GI IC50 in T47D. Summed up:
as §1

The test system of another assay is MCF7 cells. The assay can be described thus: Anti-proliferation (viability) of MCF7 cells (Table 7, FIG. 2B). To be noted: Homo sapiens, MCF7, MCF7 cells, 3-6 days, 10-point serial dilution; read-out: GI IC50 in MCF-7.
In the next assay the target is CDK4 (Homo sapiens, UniProt P11802+Q16531). Briefly: CDK4 percentage degradation in Calu-1 cells (Table 6). To be noted: 16 hours; for inhibition at 0.04 µM: 40 nM; for inhibition at 0.2 µM: 200 nM. Details: Cells that express cyclin D1-3 and CDK4/6 proteins were treated with heterobifunctional compounds; endogenous in cells; host or cells: Calu-1. In a few lines: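 Calu-1 cells exposed to heterobifunctional compounds at 40 nM or 200 nM for 16 h. Cyclin D1 and CDK4 levels measured by Western blot of RIPA lysates (BCA-normalised loading), bands quantified by densitometry and expressed as percentage degradation.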
Chain of CDK4 (P11802 2-303 limits assumed): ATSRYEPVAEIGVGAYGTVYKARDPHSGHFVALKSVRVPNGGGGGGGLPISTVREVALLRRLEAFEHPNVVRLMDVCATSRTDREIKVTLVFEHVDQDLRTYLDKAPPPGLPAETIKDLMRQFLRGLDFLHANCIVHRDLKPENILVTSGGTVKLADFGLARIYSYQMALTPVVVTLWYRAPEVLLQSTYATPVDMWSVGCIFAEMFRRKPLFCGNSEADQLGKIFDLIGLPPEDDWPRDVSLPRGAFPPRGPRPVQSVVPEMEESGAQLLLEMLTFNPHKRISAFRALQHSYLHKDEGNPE
Chain of CDK4 (P24385 whole entry partner): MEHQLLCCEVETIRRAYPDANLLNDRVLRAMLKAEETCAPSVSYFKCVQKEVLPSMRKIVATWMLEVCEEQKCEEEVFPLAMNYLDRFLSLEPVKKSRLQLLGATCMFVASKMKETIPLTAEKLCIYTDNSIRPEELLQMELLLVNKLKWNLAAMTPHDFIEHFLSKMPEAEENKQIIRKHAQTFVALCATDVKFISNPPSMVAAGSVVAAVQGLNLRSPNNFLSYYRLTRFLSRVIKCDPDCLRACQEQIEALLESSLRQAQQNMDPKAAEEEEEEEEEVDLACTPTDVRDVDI
Chain of CDK4 (Q16531 2-1140 limits assumed): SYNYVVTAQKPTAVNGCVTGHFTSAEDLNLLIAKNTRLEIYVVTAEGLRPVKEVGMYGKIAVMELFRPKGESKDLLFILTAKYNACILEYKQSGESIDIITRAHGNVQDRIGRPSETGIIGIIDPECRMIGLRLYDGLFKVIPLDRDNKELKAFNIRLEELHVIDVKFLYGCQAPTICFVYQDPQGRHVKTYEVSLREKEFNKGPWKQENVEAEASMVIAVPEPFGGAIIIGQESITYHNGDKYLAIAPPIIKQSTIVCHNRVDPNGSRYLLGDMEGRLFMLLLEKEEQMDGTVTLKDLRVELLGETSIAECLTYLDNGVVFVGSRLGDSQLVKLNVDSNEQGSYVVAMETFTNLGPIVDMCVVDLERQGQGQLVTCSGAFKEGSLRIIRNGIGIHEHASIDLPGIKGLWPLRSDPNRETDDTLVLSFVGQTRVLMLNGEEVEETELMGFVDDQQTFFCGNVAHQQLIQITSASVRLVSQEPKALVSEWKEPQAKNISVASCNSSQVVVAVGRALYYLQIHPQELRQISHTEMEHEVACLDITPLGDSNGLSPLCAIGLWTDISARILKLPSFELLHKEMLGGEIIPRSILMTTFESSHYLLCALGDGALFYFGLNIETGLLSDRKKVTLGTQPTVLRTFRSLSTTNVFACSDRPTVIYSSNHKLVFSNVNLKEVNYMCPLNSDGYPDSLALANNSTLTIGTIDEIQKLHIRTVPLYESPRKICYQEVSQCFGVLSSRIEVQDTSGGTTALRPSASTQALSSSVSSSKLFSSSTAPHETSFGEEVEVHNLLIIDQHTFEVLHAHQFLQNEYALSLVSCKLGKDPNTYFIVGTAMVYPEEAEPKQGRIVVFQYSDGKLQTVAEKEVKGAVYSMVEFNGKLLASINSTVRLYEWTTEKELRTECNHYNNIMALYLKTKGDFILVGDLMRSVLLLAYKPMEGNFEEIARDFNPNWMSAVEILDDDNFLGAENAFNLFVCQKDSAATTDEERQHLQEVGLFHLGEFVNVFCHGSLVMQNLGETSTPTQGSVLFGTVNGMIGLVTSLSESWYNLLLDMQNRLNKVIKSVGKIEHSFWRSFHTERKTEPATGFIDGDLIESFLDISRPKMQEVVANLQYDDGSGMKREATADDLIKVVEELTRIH

Among the data in patent US20260297081A1, “COMPOUNDS AND METHODS OF TREATING CANCERS” (Cullgen Inc., priority 2023, published 2026) are IC50 and inhibition values, retold here.

By IC50 is commonly meant the midpoint of a concentration-inhibition curve. One may read the inhibition as the relative decrease from the control value, in per cent. A higher inhibition goes with strong suppression.

With `CNc1ccc(C(=O)Nc2ccc(N(C)C)nn2)c(NC2CC(CNC(=O)CN3CCN(c4ccc(Nc5ncc6c(C)c(C(C)=O)c(=O)n(C7CCCC7)c6n5)nc4)CC3)C2)n1` (stereo not drawn) [CPD-79, 2-((3-((2-(4-(6-((6-Acetyl-8-cyclopentyl-5-methyl-7-oxo-7,8-dihydropyrido[2,3-d]pyrimidin-2-yl)amino)pyridin-3-yl)piperazin-1-yl)acetamido)methyl)cyclobutyl)amino)-N-(6-(dimethylamino)pyridazin-3-yl)-6-(methylamino)nicotinamide], the IC50 is at most 10 nM with Calu-1 cells, at most 50 nM with T47D cells and under 50 nM in the assay on MCF7 cells. Besides, the inhibition at 0.04 µM against CDK4 is 50 to 80%. This molecule also registered an inhibition at 0.2 µM at CDK4 of 50 to 80%.
For `CNc1ccc(C(=O)Nc2ccc(OC)nn2)c(NCCCCCCCNC(=O)CN2CCN(c3ccc(Nc4ncc5c(C)c(C(C)=O)c(=O)n(C6CCCC6)c5n4)nc3)CC2)n1` [CPD-11, 2-((7-(2-(4-(6-((6-Acetyl-8-cyclopentyl-5-methyl-7-oxo-7,8-dihydropyrido[2,3-d]pyrimidin-2-yl)amino)pyridin-3-yl)piperazin-1-yl)acetamido)heptyl)amino)-N-(6-methoxypyridazin-3-yl)-6-(methylamino)nicotinamide], the 50% inhibitory concentration (IC50) in the assay with Calu-1 cells was 10 to 50 nM; with T47D cells it was 50 to 100 nM; in the assay on MCF7 cells, under 50 nM. At CDK4, the inhibition at 0.04 µM lay in the range of 50 to 80%. Also, the inhibition at 0.2 µM at CDK4 was over 80%.
Regarding `CNc1ccc(C(=O)Nc2cccc(C3CC3)n2)c(NC2CC3(C2)CN(C(=O)CCN2CCN(c4ccc(Nc5ncc6c(C)c(C(C)=O)c(=O)n(C7CCCC7)c6n5)nc4)CC2)C3)n1` [CPD-103, 2-((2-(3-(4-(6-((6-Acetyl-8-cyclopentyl-5-methyl-7-oxo-7,8-dihydropyrido[2,3-d]pyrimidin-2-yl)amino)pyridin-3-yl)piperazin-1-yl)propanoyl)-2-azaspiro[3.3]heptan-6-yl)amino)-N-(6-cyclopropylpyridin-2-yl)-6-(methylamino)nicotinamide], the half-inhibitory concentration (IC50) with Calu-1 cells is at most 10 nM; in the assay with T47D cells, 50 to 100 nM; in the assay with MCF7 cells, over 100 nM. Moreover, the inhibition at 0.04 µM against CDK4 was over 80%. The molecule also had an inhibition at 0.2 µM on CDK4 of over 80%.
As for `CNc1ccc(C(=O)Nc2ccc(N(C)C)nn2)c(Nc2cnn(CCNC(=O)CN3CCN(c4ccc(Nc5ncc6c(C)c(C(C)=O)c(=O)n(C7CCCC7)c6n5)nc4)CC3)c2)n1` [CPD-24, 2-((1-(2-(2-(4-(6-((6-Acetyl-8-cyclopentyl-5-methyl-7-oxo-7,8-dihydropyrido[2,3-d]pyrimidin-2-yl)amino)pyridin-3-yl)piperazin-1-yl)acetamido)ethyl)-1H-pyrazol-4-yl)amino)-N-(6-(dimethylamino)pyridazin-3-yl)-6-(methylamino)nicotinamide], the figures for the half-inhibitory concentration (IC50) in the assay with Calu-1 cells, in the assay with T47D cells and in the assay on MCF7 cells were 10 to 50 nM, at least 100 nM and over 100 nM, respectively. The inhibition at 0.04 µM against CDK4 is 50 to 80%. The inhibition at 0.2 µM against CDK4 is over 80%.
As to `CNc1ccc(C(=O)Nc2ccc(N(C)C)nn2)c(NC[C@H]2CC[C@H](NC(=O)CN3CCN(c4ccc(Nc5ncc6c(C)c(C(C)=O)c(=O)n(C7CCCC7)c6n5)nc4)CC3)CC2)n1` [CPD-73], the IC50 in the assay with Calu-1 cells was 10 to 50 nM; with T47D cells, 50 to 100 nM; in the assay with MCF7 cells, 50 to 100 nM. In addition, the inhibition at 0.04 µM against CDK4 lay in the range of 50 to 80%. The molecule further registered an inhibition at 0.2 µM on CDK4 of 50 to 80%.
On to `CNc1ccc(C(=O)Nc2ccc(N(C)C)nn2)c(NCCCCCNC(=O)C(C)N2CCN(c3ccc(Nc4ncc5c(C)c(C(C)=O)c(=O)n(C6CCCC6)c5n4)nc3)CC2)n1` (stereo not drawn) [CPD-14, 2-((5-(2-(4-(6-((6-Acetyl-8-cyclopentyl-5-methyl-7-oxo-7,8-dihydropyrido[2,3-d]pyrimidin-2-yl)amino)pyridin-3-yl)piperazin-1-yl)propanamido)pentyl)amino)-N-(6-(dimethylamino)pyridazin-3-yl)-6-(methylamino)nicotinamide], for which the figures for the IC50 with Calu-1 cells, in the assay on T47D cells and in the assay with MCF7 cells were at most 10 nM, 50 to 100 nM and under 50 nM, respectively. For the same molecule, the inhibition at 0.04 µM on CDK4 was 50 to 80%. At CDK4, the inhibition at 0.2 µM fell in the range of 50 to 80%.
